Experimental findings from paper PMC6272637, “Hepatoprotective Triterpene Saponins from the Roots of Glycyrrhiza inflata” (Molecules, 2015) are described below.

The target of one assay is phospholipase A2 (PLA2). The experiment in a line: Assay for inhibition against PLA2. Type of assay: biochemical. The conditions noted are these: PLA2 enzyme 5 μg/mL, pH 8.2, 40 °C, 30 min, OD 495 nm; three repeats. On the procedure:
As a regulator associated with the stability of the liver cell membrane, phospholipase A2 (PLA2) is a promising target for hepatoprotective drug development.
The PLA2 inhibitory assays of compounds 1–11 and the positive drug diethylenetriaminepentaacetic acid (Purchased from Aladdin, Los Angeles, CA, USA, purity > 98.0%) were carried out according to the literature. First of all, each tube was added with 1 mL fresh substrate buffer solution (pH = 8.2). After that, 50 μL tested compounds at various concentrations were placed at reaction tube and blank tube, respectively. As for control tube, 50 μL deionized water was instead. Then each tube incubated at 40 °C for 10 minutes. The reaction tube and blank tube were followed by the treatment with PLA2 enzyme (5 μL) at the concentration of 5 μg/mL. Before put them into the incubator at the temperature of 40 °C to react 30 minutes, the content of the tube should be fully blending. The optical density value of each tube was then read in an ELISA plate reader using a wavelength of 495 nm. The IC50 values were calculated from concentration-response curves by means of the GraphPad Prism 5.0 Software (San Diego, CA, USA). Each experiment was repeated three times to get the mean values.

In assay [1] the test system is primary rat hepatocytes injured by D-GalN. The experiment in a line: Hepatoprotective activity in primary rat hepatocytes injured by D-GalN (AST, LDH levels). Type of assay: cell-based. The conditions noted are these: for AST / LDH: primary rat hepatocytes, 2 mM D-GalN, mean ± SD, n = 3; for AST: model 17.1 ± 2.4, control 6.9 ± 1.7; for LDH: model 253.5 ± 13.5, control 157.4 ± 11.7; for hepatoprotective activity (result in words): primary rat hepatocytes injured by D-GalN, compared to model group or between compounds. On the procedure: All the separated compounds were assessed for their hepatoprotective activities against the increase of AST and LDH levels in primary rat hepatocytes injured by D-GalN. The maximum nontoxic concentrations of tested compounds on primary rat hepatocytes were in the range of 120–240 μM. […] (Table 2).
Isolated rat hepatocytes were prepared from male Wistar rats by a collagenase perfusion technique as described previously. The D-GalN concentration used for cell culture treatment was previously determined according to a modification of the method of Morikawa et al.. The cultured cells in logarithmic growth phase were made into a single-cell suspension and seeded in 96-well plates (1 × 10^4 cells/well) in the DMEM/F 12 with 2% FBS complete medium for 24 h at 37 °C. Then, the hepatocytes were exposed to 2 mM D-GalN for 2 h to induce hepatotoxocity. The medium with silibin meglumine (as positive drug, purity 95.6%, Hunan Xieli Pharmaceutical Co., Ltd., Zhuzhou, China) and different concentrations of test compounds was mixed in cell medium (final test compounds concentration were 30 μM, 60 μM and 120 μM, respectively), and incubated for 24 h. The obtained reacted supernatant was directly used to detect ALT and AST levels. The control group was a set of cells maintained in culture medium, while the model group was a set of cells maintained in culture medium and treated only with D-GalN. All data are expressed as the mean ± SD of at least three independent experiments as indicated. The test for the paired samples was used to determine statistical difference between parameters. These differences were considered significant for p < 0.05 or 0.01.

Structures are written as SMILES. Entries after “also recorded” stand apart in the source; their conditions may differ. Marks after values point to notes of the source that are not given here.

Usually IC50 stands for the concentration at which inhibition is half-maximal. The low end stands for greater potency, the high end for weaker potency. In the case of `CC12CCC(CO)(C(=O)O)CC1C1=CC(=O)C3C4(C)CCC(OC5OC(C(=O)O)C(O)C(O)C5OC5OC(C(=O)O)C(O)C(O)C5O)C(C)(C)C4CCC3(C)C1(C)CC2` [Compound 1, 3β-O-[β-D-glucuronopyranosyl-(1→2)-β-D-glucuronopyranosyl]-29-hydroxyglycyrrhetic acid], at phospholipase A2 (PLA2), the IC50 is over 50 µM.
For `CC12CCC3(C)C(=CC(=O)C4C5(C)CCC(OC6OC(C(=O)O)C(O)C(O)C6OC6OC(C(=O)O)C(O)C(O)C6O)C(C)(C)C5CCC43C)C1CC(C)(C(=O)O)C(O)C2` (stereo not drawn) [Compound 2, macedonoside A], the AST is 14.6 ± 3.1 U·L^−1 in assay [1] (30 μM compound), 13.1 ± 2.1 ^c U·L^−1 in assay [1] (60 μM compound) and 11.2 ± 1.9 ^d U·L^−1 in assay [1] (120 μM compound). In addition, the LDH in assay [1] (30 μM compound) was 231.0 ± 18.3 ^c U·L^−1; in assay [1] (60 μM compound) it was 213.7 ± 19.6 ^d U·L^−1; in assay [1] (120 μM compound) it was 215.9 ± 8.2 ^d U·L^−1. In addition, the “hepatoprotective activity (result in words)” value (shortened to “hepatoprotective activity”) in assay [1] is “notably lowered AST; also recorded: significant hepatoprotective activities”. This molecule returned a half-maximal inhibitory concentration (IC50) at phospholipase A2 (PLA2) of 6.9 ± 0.5 µM.
`CC1(C(=O)O)CCC2(C)CCC3(C)C(=CC(=O)C4C5(C)CCC(OC6OC(C(=O)O)C(O)C(O)C6OC6OC(C(=O)O)C(O)C(O)C6O)C(C)(CO)C5CCC43C)C2C1` [Compound 3, 3β-O-[β-D-glucuronpyranosyl-(1→2)-β-D-glucuron-pyranosyl]-24-hydroxy-18α-glycyrrhetic acid]: the AST was 13.3 ± 2.9 ^c U·L^−1 in assay [1] (30 μM compound), 12.9 ± 3.2 ^d U·L^−1 in assay [1] (60 μM compound) and 10.8 ± 2.8 ^d U·L^−1 in assay [1] (120 μM compound). In addition, the LDH in assay [1] (30 μM compound) was 224.6 ± 21.4 ^c U·L^−1; in assay [1] (60 μM compound) it was 208.6 ± 16.0 ^d U·L^−1; in assay [1] (120 μM compound), 200.7 ± 15.1 ^d U·L^−1. Further, in assay [1], the “hepatoprotective activity” value was “notably lowered AST; also recorded: higher activity than compound 4; also recorded: significant hepatoprotective activities”. At phospholipase A2 (PLA2), this molecule gave an IC50 of 3.6 ± 0.3 µM.
`CC1(C(=O)O)CCC2(C)CCC3(C)C(=CC(=O)C4C5(C)CCC(OC6OC(C(=O)O)C(O)C(O)C6OC6OC(C(=O)O)C(O)C(O)C6O)C(C)(CO)C5CCC43C)C2C1` (stereo not drawn) [Compound 4, licorice-saponin G2]: the AST in assay [1] (30 μM compound) is listed as 14.8 ± 2.9 U·L^−1; in assay [1] (60 μM compound), 13.7 ± 2.6 ^c U·L^−1; in assay [1] (120 μM compound) it was 12.6 ± 2.8 ^c U·L^−1. In addition, the figures for the LDH in assay [1] (30 μM compound), in assay [1] (60 μM compound) and in assay [1] (120 μM compound) were 237.2 ± 16.4 U·L^−1, 232.7 ± 25.7 U·L^−1 and 224.9 ± 25.2 ^c U·L^−1, respectively. The “hepatoprotective activity” value in assay [1] is “notably lowered AST; also recorded: significant hepatoprotective activities”. This molecule registered a half-maximal inhibitory concentration (IC50) at phospholipase A2 (PLA2) of 16.9 ± 0.3 µM.
On to `CC12CC(OC1=O)C1(C)CCC3(C)C(=CC(=O)C4C5(C)CCC(OC6OC(C(=O)O)C(O)C(O)C6OC6OC(C(=O)O)C(O)C(O)C6O)C(C)(C)C5CCC43C)C1C2` (stereo not drawn) [Compound 5, licorice-saponin E2], for which, in assay [1], the “hepatoprotective activity” value was “significantly weaker hepatoprotective activities than the compound 2 and 11”. Further, the IC50 against phospholipase A2 (PLA2) was over 50 µM.
`CC(=O)OC1CC(C)(C(=O)O)CC2C3=CC(=O)C4C5(C)CCC(OC6OC(C(=O)O)C(O)C(O)C6OC6OC(C(=O)O)C(O)C(O)C6O)C(C)(C)C5CCC4(C)C3(C)CCC12C` (stereo not drawn) [Compound 6, 22β-acetoxyglycyrrhizin]: the AST is recorded as 16.5 ± 2.2 U·L^−1 in assay [1] (30 μM compound), 14.6 ± 3.0 U·L^−1 in assay [1] (60 μM compound) and 13.2 ± 2.7 ^c U·L^−1 in assay [1] (120 μM compound). For the same molecule, the LDH in assay [1] (30 μM compound) is 242.8 ± 15.2 U·L^−1; in assay [1] (60 μM compound), 228.7 ± 14.0 ^c U·L^−1; in assay [1] (120 μM compound), 221.7 ± 19.5 ^d U·L^−1. Besides, the “hepatoprotective activity” value in assay [1] is “notably lowered AST; also recorded: significant hepatoprotective activities”. The molecule further returned a concentration for half-maximal inhibition (IC50) on phospholipase A2 (PLA2) of 27.1 ± 0.9 µM.
On to `CC1(C)C(OC2OC(C(=O)O)C(O)C(O)C2OC2OC(C(=O)O)C(O)C(O)C2O)CCC2(C)C1CCC1(C)C2C(=O)C=C2C3CC4(C(=O)O)CC(OC4=O)C3(C)CCC21C` (stereo not drawn) [Compound 7, uralsaponin D], for which, in assay [1], the “hepatoprotective activity” value was “significantly weaker hepatoprotective activities than the compound 2 and 11”. The molecule also yielded an IC50 against phospholipase A2 (PLA2) of 32.2 ± 0.5 µM.
With `CC12CC(OC1=O)C1(C)CCC3(C)C(=CC(=O)C4C5(C)CCC(OC6OC(C(=O)O)C(O)C(O)C6OC6OC(C(=O)O)C(O)C(O)C6O)C(C)(CO)C5CCC43C)C1C2` (stereo not drawn) [Compound 8, 24-hydroxylicorice-saponin E2], the IC50 against phospholipase A2 (PLA2) is over 50 µM.
Take `CC(=O)OC1CC(C)(C=O)CC2C3=CC(=O)C4C5(C)CCC(OC6OC(C(=O)O)C(O)C(O)C6OC6OC(C(=O)O)C(O)C(O)C6O)C(C)(C)C5CCC4(C)C3(C)CCC12C` (stereo not drawn) [Compound 9, 22β-acetoxyglycyrrhaldehyde]: the IC50 against phospholipase A2 (PLA2) is over 50 µM.
Still for that read-out and setting: with `CC1(C(=O)OC2OC(CO)C(O)C(O)C2O)CCC2(C)CCC3(C)C(=CC(=O)C4C5(C)CCC(OC6OC(C(=O)O)C(O)C(O)C6OC6OC(C(=O)O)C(O)C(O)C6O)C(C)(CO)C5CCC43C)C2C1` (stereo not drawn) [Compound 10, licorice-saponin A3] the figure was over 50 µM.
As to `CC1(C)[C@@H](O[C@H]2O[C@H](C(=O)O)[C@@H](O)[C@H](O)[C@H]2O[C@@H]2O[C@H](C(=O)O)[C@@H](O)[C@H](O)[C@H]2O)CC[C@]2(C)[C@H]3C(=O)C=C4[C@@H]5C[C@@](C)(C(=O)O)CC[C@]5(C)CC[C@@]4(C)[C@]3(C)CC[C@@H]12` [Compound 11, glycyrrhizin], the figures for the AST in assay [1] (30 μM compound), in assay [1] (60 μM compound) and in assay [1] (120 μM compound) were 14.1 ± 2.1 ^c U·L^−1, 13.0 ± 2.2 ^c U·L^−1 and 11.6 ± 1.8 ^d U·L^−1, respectively. In addition, the LDH is on record as 236.3 ± 9.4 ^c U·L^−1 in assay [1] (30 μM compound), 219.1 ± 19.3 ^d U·L^−1 in assay [1] (60 μM compound) and 207.8 ± 21.9 ^d U·L^−1 in assay [1] (120 μM compound). Further, in assay [1], the “hepatoprotective activity” value is listed as “notably lowered AST; also recorded: stronger activity than 1; also recorded: significant hepatoprotective activities”. Also, the concentration for half-maximal inhibition (IC50) against phospholipase A2 (PLA2) was 9.3 ± 0.8 µM.
The molecule `O=C(O)CN(CCN(CC(=O)O)CC(=O)O)CCN(CC(=O)O)CC(=O)O` [Diethylenetriaminepentaacetic acid, reference compound] had an IC50 on phospholipase A2 (PLA2) of 1.8 ± 0.1 µM.
With `CNCC(O)C(O)C(O)C(O)CO.COc1cc(C2Oc3cc(C4Oc5cc(O)cc(O)c5C(=O)C4O)ccc3OC2CO)ccc1O` (stereo not drawn) [Silibinin Meglumine, reference compound], in assay [1] (50 μM (positive drug)), the AST is 10.3 ± 2.2 ^d U·L^−1 and the LDH is given as 219.1 ± 10.9 ^d U·L^−1.
